Patent publication US5356903A, “1-cyclopropyl-4-pyridyl-quinolines” (Sterling Winthrop Inc., priority 1993, dated 1994)
Where two headings read alike, the source gives them in different places.

Assays:
[1] = test system: pancreatic ductal adenocarcinoma No. 03 (Panc 03); experiment: In vivo antitumor assay, Panc03; design: species or system murine tumor in mice
Description: (§1) In vivo Antitumor Assay Procedure
(§2) Mice: Inbred: C3H/He and NCR-nu; and Hybrids: B6D2F1 (C57BL/6 females×DBA/2 males, CD2F1 (Balb/c females×DBS/2 males) and B6C3fl (C57BL/6×C3H) were bred at Wayne State University from strains obtained from the Frederick Cancer Research Facility, Frederick, Md. or purchased from commercial suppliers.
Tumors: Murine Tumor: P388 leukemia and pancreatic ductal adenocarcinoma No. 03 (Panc 03) were used for in vivo testing. Human tumor: A single human tumor, mammary carcinoma MX-1 (MX1) was used for in vivo testing. All tumors are in the Developmental Therapeutics Program frozen tumor respository, maintained by the Biological Testing Branch, Frederick, Md. Each has a detailed description, code identification number, and list of references at the National Tumor Repository. Murine tumors were maintained in the mouse strain of origin and were transplanted in the appropriate F1 hydrid (or the strain of orgin) for therapy trials. Human mammary carcinoma MX-1 (MX1) was maintained as a subcutaneous implant in either athymic Swiss (Cr: NIH (S) - nu) or athymic random bred (NCR-nu) mice and transplanted in NCR-nu for therapy trials.
Chemotherapy: For pancreatic ductal adenocarcinoma No. 3, bilateral tumor implants were used to help ensure a more uniform tumor burden per mouse. The animals necessary to begin an experiment were pooled, implanted bilaterally s.c. on day zero with 30-60-mg tumor fragments using a 12-gauge trocar, and again pooled before randomization to the various treatment and control groups. Chemotherapy was started within three days after tumor implantation while the number of cells per mouse was relatively small (1×10^7 -1×10^8 cells).
End Points for Assessing Antitumor Activity
(§3) Quantitative end points used to assess antitumor activity were percent Increased Life Span (% ILS), and Tumor Growth Inhibition (T/C).
(§4) Endpoints were calculated as follows: […]
Tumors were measured with a caliper once or twice weekly (as needed) until either tumors exceeded 1600 mg or cure was assured. Tumor weights were estimated from two dimensional measurements: Tumor Weight (mg)+(a×b^2)/2, where a and b are the tumor length and width (mm) respectively. Measurements were carried out simultaneously in both treatment and control groups. When the control group tumors reached approximately 750-1500 mg in size (median of group), the median tumor weight of each group was determined (including zeros). The T/C value in percent is an indication of antitumor effectiveness. The % T/C was calculated from the following formula for solid murine tumor models: [formula] where T and C are median tumor weights of the treatment and control groups, respectively. A T/C equal to or less than 42% is considered significant antitumor activity. A T/C value<10% is indicative of a high degree of antitumor activity and is the level used by National Cancer Institute to justify further development if other requirements are met (termed DN-2 level activity). By convention the T/C value for the mammary carcinoma MX-1 model is calculated by the parameter of change in tumor weight. The % T/C was calculated from the following formula for the MX-1 model; [formula] where ΔT and ΔC are the change in mean tumor weight of the test and control groups, respectively, and T (initial) is the initial mean tumor weight of the test group. […] A % T/C≤10 is considered significant activity.

human topoisomerase II = target: T1, human topoisomerase II (Homo sapiens, UniProt P11388); experiment: Mammalian Topoisomerase II Inhibition Assay (stabilization of DNA-topo II covalent complex); assay type: biochemical
T1 construct: Topo II was purified from late log phase suspension cultures of HeLa WIS; endogenous in cells; host or cells: HeLa WIS (late log phase suspension cultures); enzyme purified from the cells
Description: Mammalian Topoisomerase II Inhibition Assay Procedure
The inhibition of human topoisomerase II (hereafter topo II) was quantitated by a procedure adapted from that described by Trask et al., EMBO J., 3, 671-676 (1984). The assay quantitates the amount of topo II covalently complexed by DNA at equilibrium during a topo II reaction. This assay determines the potential of a compound to stabilize this complex, which potential is closely related to the cytotoxicity of several clinically useful antineoplastic agents.
Topo II was purified from late log phase suspension cultures of HeLa WIS by an adaptation of the method described by Per et al., Mol. Pharmacol., 32, 17-25 (1987).
Assays (in duplicate) were assembled at 4° C. Assay mix (25 μl ) was distributed in Beckman (No. 265270) 1.5 mL microtitre tubes followed by the addition of 5 μl test to yield the final concentrations of assay components:
4 ng 3' end labeled (^32 p) pBR322 DNA (10^7 DPM/μg)
The assay mix including the test compound was incubated for 20 minutes at 37° C. The reaction was terminated at 37° C. by the addition of 3 μl 10% SDS followed by the addition of 266 μl 10 mM Tris-Cl pH 7.5, 20 μg/ml calf thymus DNA, 1% SDS.
A SDS/protein precipitate was formed by the addition of 28 μl 2.5M KCl followed by chilling on ice for a minimum of 10 minutes. The precipitate was collected and washed with a Brandell cell harvester on a GFB glass fiber filter membrane as follows. The contents of the assay tube were drawn up into the harvester. The tube was then rinsed 7× with 10 mM Tris-Cl pH 7.5, 1 mM EDTA and 100 mM KCl. The precipitate was washed with 1 L of a solution of 10 mM Tris-Cl pH 7.5, 1 mMEDTA, 100 mM KCl followed by 1 L of 95% ethyl alcohol and finally 0.5 L 70% of ethyl alcohol (per 48 samples in each case). After drying, CPM was determined by liquid scintillation counting with 5 ml Biofluor (NEN Research Products) or Readisafe (Beckman Instruments Inc.) cocktail.
Preparation of test compound--A stock solution (6 mg/ml) of test compound was prepared either in 0.1N sodium hydroxide or 0.2N hydrogen chloride. This solution then was diluted 1/5 into water and serially thereafter in either 0.02N sodium hydroxide or 0.04N hydrogen chloride, respectively. The stock solution and serial dilution of the test compound was stored at -20° C. prior to testing.
Screening of test compound--As an initial screen, the test compound was tested at a final concentration of 2, 20 and 200 μg/ml. The compound was then retested at a range of concentrations (usually 2-3× steps) bridging their approximate EC50 's, as estimated by the prescreen.
Controls--A solvent control which indicates the base level of topo II-DNA complexes formed in the absence of the test compound was included in each test. A control, in which topo II was omitted, was included for each test compound at the highest drug concentration tested.
Reference Agent--A dose response curve with mAMSA at 0.01, 0.08, 0.16, 0.32, 1.0 and 10 μg/ml was included in each test.
Data reduction--The EC50 (effective concentration at which 50% of the maximal DNA-topo II complex is formed) of a test compound is defined to be the concentration with activity equal to the EC50 of the reference agent, mAMSA. The maximal DNA-topo II complex formed is taken as that equal to that formed at the nearly saturating dose of mAMSA (10 μg/ml).
The results obtained for representative compounds of the invention in the human topoisomerase II assay procedure expressed as EC50 s (μM) are presented in Table 3.

[2] = test system: mammary carcinoma MX-1 (MX1); experiment: In vivo antitumor assay, mammary carcinoma MX-1; design: species or system human tumor in NCR-nu mice; conditions: MX-1, sc tumor/ip drug
Description: as §1, §2
Tumors: Murine Tumor: P388 leukemia and pancreatic ductal adenocarcinoma No. 03 (Panc 03) were used for in vivo testing. Human tumor: A single human tumor, mammary carcinoma MX-1 (MX1) was used for in vivo testing. All tumors are in the Developmental Therapeutics Program frozen tumor respository, maintained by the Biological Testing Branch, Frederick, Md. […]
as §3, §4
Tumors were measured with a caliper once or twice weekly (as needed) until either tumors exceeded 1600 mg or cure was assured. […] When the control group tumors reached approximately 750-1500 mg in size (median of group), the median tumor weight of each group was determined (including zeros). […] The % T/C was calculated from the following formula for solid murine tumor models: [formula] where T and C are median tumor weights of the treatment and control groups, respectively. […]

P388 leukemia = experiment: In vivo antitumor assay, P388 leukemia; design: species or system murine tumor in mice
Description: as §1, §2
Tumors: Murine Tumor: P388 leukemia and pancreatic ductal adenocarcinoma No. 03 (Panc 03) were used for in vivo testing. Human tumor: A single human tumor, mammary carcinoma MX-1 (MX1) was used for in vivo testing. All tumors are in the Developmental Therapeutics Program frozen tumor respository, maintained by the Biological Testing Branch, Frederick, Md. Each has a detailed description, code identification number, and list of references at the National Tumor Repository. Murine tumors were maintained in the mouse strain of origin and were transplanted in the appropriate F1 hydrid (or the strain of orgin) for therapy trials. Human mammary carcinoma MX-1 (MX1) was maintained as a subcutaneous implant in either athymic Swiss (Cr: NIH (S) - nu) or athymic random bred (NCR-nu) mice and transplanted in NCR-nu for therapy trials. […]
as §3, §4

[3] = concentration with activity equal to EC50 of mAMSA, 20 min, 37° C, read-out: Topo II EC50
[4] = footnote *: bell shaped dose response, read-out: Topo II EC50 (bell shaped dose response)

T1 sequence (P11388 whole entry): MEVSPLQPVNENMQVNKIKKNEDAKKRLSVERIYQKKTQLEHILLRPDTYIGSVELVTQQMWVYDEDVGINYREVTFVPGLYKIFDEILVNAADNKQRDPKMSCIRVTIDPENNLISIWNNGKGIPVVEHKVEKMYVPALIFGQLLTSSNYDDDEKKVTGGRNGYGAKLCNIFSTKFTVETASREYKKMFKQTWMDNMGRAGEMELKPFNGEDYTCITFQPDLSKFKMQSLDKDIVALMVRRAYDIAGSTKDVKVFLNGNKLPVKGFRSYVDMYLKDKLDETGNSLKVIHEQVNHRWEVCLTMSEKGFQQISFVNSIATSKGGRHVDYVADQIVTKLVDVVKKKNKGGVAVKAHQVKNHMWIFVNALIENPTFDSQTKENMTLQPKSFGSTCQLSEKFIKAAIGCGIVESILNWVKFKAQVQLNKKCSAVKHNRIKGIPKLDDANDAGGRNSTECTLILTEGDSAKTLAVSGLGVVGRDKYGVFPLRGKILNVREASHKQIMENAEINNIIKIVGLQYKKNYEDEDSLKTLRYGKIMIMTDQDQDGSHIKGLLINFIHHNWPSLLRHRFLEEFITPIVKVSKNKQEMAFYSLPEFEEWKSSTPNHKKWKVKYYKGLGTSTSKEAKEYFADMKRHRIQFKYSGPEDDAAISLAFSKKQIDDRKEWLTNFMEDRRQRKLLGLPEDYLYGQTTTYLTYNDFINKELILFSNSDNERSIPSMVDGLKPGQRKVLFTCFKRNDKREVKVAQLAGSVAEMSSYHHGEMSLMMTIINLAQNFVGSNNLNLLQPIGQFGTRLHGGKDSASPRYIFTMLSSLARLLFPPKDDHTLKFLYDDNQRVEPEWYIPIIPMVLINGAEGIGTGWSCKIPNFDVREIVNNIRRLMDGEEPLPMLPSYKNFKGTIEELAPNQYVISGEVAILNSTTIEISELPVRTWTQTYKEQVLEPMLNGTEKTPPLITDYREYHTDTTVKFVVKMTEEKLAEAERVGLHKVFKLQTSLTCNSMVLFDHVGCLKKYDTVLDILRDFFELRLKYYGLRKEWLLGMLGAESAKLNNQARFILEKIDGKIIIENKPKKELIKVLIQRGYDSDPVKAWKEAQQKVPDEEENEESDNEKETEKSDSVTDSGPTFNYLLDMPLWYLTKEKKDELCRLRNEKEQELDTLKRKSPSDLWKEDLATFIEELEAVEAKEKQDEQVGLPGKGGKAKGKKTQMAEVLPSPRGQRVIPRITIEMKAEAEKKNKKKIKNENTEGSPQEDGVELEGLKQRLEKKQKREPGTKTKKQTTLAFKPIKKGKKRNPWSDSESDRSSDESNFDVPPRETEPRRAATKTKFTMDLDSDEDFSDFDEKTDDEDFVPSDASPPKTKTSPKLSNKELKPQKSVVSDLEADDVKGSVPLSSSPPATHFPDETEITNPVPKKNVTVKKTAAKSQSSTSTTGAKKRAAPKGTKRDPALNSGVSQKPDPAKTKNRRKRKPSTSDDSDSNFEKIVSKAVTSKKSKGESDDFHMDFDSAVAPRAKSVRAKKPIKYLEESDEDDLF

Row | Structure (SMILES) | EC50 (human topoisomerase II; [3]) [µM] | also measured
1 | Cc1cc(-c2c(F)cc3c(=NN)ccn(C4CC4)c3c2F)cc(C)n1 [Example 1] | 1.7 | In vivo antitumor activity, Panc03 ([1]; Panc03, sc tumor/iv drug): Inactive
2 | Cc1cc(-c2c(F)cc3c(=NNc4ccccn4)ccn(C4CC4)c3c2F)cc(C)n1 [Example 2] | 0.98 | In vivo antitumor activity, MX-1 [2]: Inactive; % T/C (Tumor Growth Inhibition), Panc03 ([1]; Panc03, sc tumor/iv drug, T/C ≤42% considered significant): 37%; In vivo antitumor activity, P388 (P388 leukemia; P388, ip tumor/ip drug): Inactive; In vivo antitumor activity, P388 (P388 leukemia; P388, ip tumor/iv drug): Inactive
3 | Cc1ccc(S(=O)(=O)N=c2ccn(C3CC3)c3c(F)c(-c4cc(C)nc(C)c4)c(F)cc23)cc1 [Example 3] |  | EC50 (human topoisomerase II; [4]): 45 µM
4 | Cc1cc(-c2c(F)cc3c(=N)ccn(C4CC4)c3c2F)cc(C)n1 [Example 4] | 12 | 
5 | CC(=O)NN=c1ccn(C2CC2)c2c(F)c(-c3cc(C)nc(C)c3)c(F)cc12 [Example 5] | 20 | 
6 | Cc1cc(-c2c(F)cc3c(=NN4C(=O)c5ccccc5C4=O)ccn(C4CC4)c3c2F)cc(C)n1 [Example 6] | 16 | 
7 | Cc1cc(-c2c(F)cc3c(c2F)N(C2CC2)C=CC3=C(C#N)C#N)cc(C)n1 [Example 7] |  | EC50 (human topoisomerase II; [4]): 6.3 µM
8 | CCOC(=O)C(C#N)=C1C=CN(C2CC2)c2c1cc(F)c(-c1cc(C)nc(C)c1)c2F [Example 8a] |  | EC50 (human topoisomerase II; [4]): 4.8 µM
9 | Cc1cc(-c2c(F)cc3c(c2F)N(C2CC2)C=CC3=CC#N)cc(C)n1 [Example 8b] | 4 | 
10 | CNN=c1ccn(C2CC2)c2c(F)c(-c3cc(C)nc(C)c3)c(F)cc12 [Example 9] | 1.9 | 
11 | Cc1cc(-c2c(F)cc3c(=NO)ccn(C4CC4)c3c2F)cc(C)n1 [Example 10] | 1.4 | In vivo antitumor activity, Panc03 ([1]; Panc03, sc tumor/iv drug): Inactive
12 | Cc1cc(-c2c(F)cc3c(=NN(C)C)ccn(C4CC4)c3c2F)cc(C)n1 [Example 11] | 2.3 | 
13 | Cc1cc(-c2c(F)cc3c(=NC4CC4)ccn(C4CC4)c3c2F)cc(C)n1 [Example 12] | 2.4 | In vivo antitumor activity, Panc03 ([1]; Panc03, sc tumor/iv drug): Inactive
14 | Cc1cc(-c2c(F)cc3c(=NNC(N)=O)ccn(C4CC4)c3c2F)cc(C)n1 [Example 13] | 3.1 | In vivo antitumor activity, Panc03 ([1]; Panc03, sc tumor/iv drug): Inactive
15 | Cc1cc(-c2c(F)cc3c(=NNc4c5ccccc5nc5ccccc45)ccn(C4CC4)c3c2F)cc(C)n1 [Example 14] | 28 | 
16 | Cc1cc(-c2c(F)cc3c(=NNCCO)ccn(C4CC4)c3c2F)cc(C)n1 [Example 15] | 3.2 | 
17 | Cc1cc(-c2c(F)cc3c(=NNc4cnc5ccccc5c4)ccn(C4CC4)c3c2F)cc(C)n1 [Example 16] | 92 | 
18 | CON=c1ccn(C2CC2)c2c(F)c(-c3cc(C)nc(C)c3)c(F)cc12 [Example 17] |  | EC50 (human topoisomerase II; [4]): 2.6 µM
19 | Cc1cc(-c2c(F)cc3c(=NSc4ccc(Cl)cc4)ccn(C4CC4)c3c2F)cc(C)n1 [Example 18] | 9.4 | 
20 | Cc1cc(-c2c(F)cc3c(=NSc4ccccn4)ccn(C4CC4)c3c2F)cc(C)n1 [Example 19] | 3.8 | 
21 | Cc1cc(-c2c(F)cc3c(=NCCN(C)C)ccn(C4CC4)c3c2F)cc(C)n1 [Example 20] | 14 | 
22 | Cc1cc(-c2c(F)cc3c(=NCCCN(C)C)ccn(C4CC4)c3c2F)cc(C)n1 [Example 21] | 5.5 | 
23 | Cc1cc(-c2c(F)cc3c(=Nc4ccccc4)ccn(C4CC4)c3c2F)cc(C)n1 [Example 22] | 1.9 | 
24 | Cc1cc(-c2c(F)cc3c(=Nc4ccccn4)ccn(C4CC4)c3c2F)cc(C)n1 [Example 23] | 3.6 | 
25 | Cc1cc(-c2c(F)cc3c(=Nc4ccccc4O)ccn(C4CC4)c3c2F)cc(C)n1 [Example 24] | 1.6 | 
26 | Cc1cc(-c2c(F)cc3c(=Nc4ccc(N)cc4)ccn(C4CC4)c3c2F)cc(C)n1 [Example 25] | 7.6 | 
27 | Cc1cc(-c2c(F)cc3c(=O)ccn(C4CC4)c3c2F)cc(C)n1 [Int A] | 17 | In vivo antitumor activity, Panc03 ([1]; Panc03, route not given): Inactive
28 | Cc1cc(-c2c(F)cc3c(=S)ccn(C4CC4)c3c2F)cc(C)n1 [Int B] |  | EC50 (human topoisomerase II; footnote E: endpoint of assay extrapolated, read-out: Topo II EC50 (endpoint of assay extrapolated)): 76 µM
29 | CSc1cc[n+](C2CC2)c2c(F)c(-c3cc(C)nc(C)c3)c(F)cc12 [Int C] | 24 | 
